Measured values published in patent publication US9428439B2, “Hydrobenzamide derivatives as inhibitors of Hsp90” (priority 2006, dated 2016).
Entries after “also recorded” stand apart in the source; their conditions may differ. Where two headings read alike, the source gives them in different places. One block for each compound: values may come before it.

Legend:
Format in all cases: physicochemical
Rate of solubility = conditions: compared with the free base and other salts tested
Hygroscopicity = test: Hygroscopicity
[1] = Solid-state stability of crystalline forms (XRPD); conditions: for stability in air: XRPD
Text: Samples for X-ray powder diffraction (XRPD) data collection were gently ground by marble mortar and loaded into a crystallographic capillary (from Hampton Research, Quartz or Glass Type 10, 0.4 or 0.7 mm diameter). Diffraction patterns were collected at room temperature using CuKα radiation (λ=1.5418 Å) from a Rigaku rotating anode RU3HR, Osmic blue confocal optics, ¼ c goniometer and a Rigaku HTC image plate detector. 2D Images were collected while spinning φ axis with a detector to crystal distance of 250 mm. Data collection was controlled by CrystalClear software and 2D images were converted to 1D plot (2θ vs. Intensity) by Datasqueeze (intensity averaged over the azimuthal angle 0≦χ≦360° for […] 3-30° in 0.02° steps). In house program AstexXRPD was used for manipulation and visualisation of 1D XRPD patterns.

Structure (SMILES): CC(C)c1cc(C(=O)N2Cc3ccc(CN4CCN(C)CC4)cc3C2)c(O)cc1O.C[C@H](O)C(=O)O [(2,4-dihydroxy-5-isopropyl-phenyl)-[5-(4-methyl-piperazin-1-ylmethyl)-1,3-dihydro-isoindol-2-yl]-methanone L-lactate salt]
rate of solubility (Rate of solubility): better rate of solubility than the free base and other salts tested
hygroscopicity (Hygroscopicity): non-hygroscopic

Structure (SMILES): CC(C)c1cc(C(=O)N2Cc3ccc(CN4CCN(C)CC4)cc3C2)c(O)cc1O [Form FB1, (2,4-dihydroxy-5-isopropyl-phenyl)-[5-(4-methyl-piperazin-1-ylmethyl)-1,3-dihydro-isoindol-2-yl]-methanone]
stability in air ([1]; listed as FB1): unstable in air and converts to form FB3; also recorded: converted completely to crystal form FB3

Structure (SMILES): CC(C)c1cc(C(=O)N2Cc3ccc(CN4CCN(C)CC4)cc3C2)c(O)cc1O [Form FB2, (2,4-dihydroxy-5-isopropyl-phenyl)-[5-(4-methyl-piperazin-1-ylmethyl)-1,3-dihydro-isoindol-2-yl]-methanone]
stability in air ([1]; listed as FB2): unstable in air and converts to form FB3; also recorded: changed to crystal form FB3

Structure (SMILES): CC(C)c1cc(C(=O)N2Cc3ccc(CN4CCN(C)CC4)cc3C2)c(O)cc1O [Form FB3, (2,4-dihydroxy-5-isopropyl-phenyl)-[5-(4-methyl-piperazin-1-ylmethyl)-1,3-dihydro-isoindol-2-yl]-methanone]
stability at 40° C. and 75% RH [1]: stable in air at 40 °C and in 75% relative humidity for at least one month; also recorded: stable in air and at 40 °C and 75% RH for at least one month
stability in air ([1]; listed as FB3): stable in air

Structure (SMILES): CC(C)c1cc(C(=O)N2Cc3ccc(CN4CCN(C)CC4)cc3C2)c(O)cc1O [Form FB4, (2,4-dihydroxy-5-isopropyl-phenyl)-[5-(4-methyl-piperazin-1-ylmethyl)-1,3-dihydro-isoindol-2-yl]-methanone]
stability of the crystalline form (stable / unstable form) [1]: stable
stability in air ([1]; listed as FB4): stable in air

Structure (SMILES): CC(C)c1cc(C(=O)N2Cc3ccc(CN4CCN(C)CC4)cc3C2)c(O)cc1O [Form FB5, (2,4-dihydroxy-5-isopropyl-phenyl)-[5-(4-methyl-piperazin-1-ylmethyl)-1,3-dihydro-isoindol-2-yl]-methanone]
stability in air ([1]; listed as FB5): unstable in air; also recorded: transforms to FB6 in air; also recorded: conversion to form FB6

Structure (SMILES): CC(C)c1cc(C(=O)N2Cc3ccc(CN4CCN(C)CC4)cc3C2)c(O)cc1O [Form FB6, (2,4-dihydroxy-5-isopropyl-phenyl)-[5-(4-methyl-piperazin-1-ylmethyl)-1,3-dihydro-isoindol-2-yl]-methanone]
stability in air ([1]; listed as FB6): stable in air; also recorded: stable on air

Structure (SMILES): CC(C)c1cc(C(=O)N2Cc3ccc(CN4CCN(C)CC4)cc3C2)c(O)cc1O.Cl [Form FH2, (2,4-dihydroxy-5-isopropyl-phenyl)-[5-(4-methyl-piperazin-1-ylmethyl)-1,3-dihydro-isoindol-2-yl]-methanone hydrochloride salt]
stability in air ([1]; listed as FH2, hydrochloride salt): unstable in air; also recorded: transforms on air into form FH3; also recorded: conversion to form FH3

Second part, led by results:

stability in air ([1]; listed as FH1, hydrochloride salt): unstable in air
Structure (SMILES): CC(C)c1cc(C(=O)N2Cc3ccc(CN4CCN(C)CC4)cc3C2)c(O)cc1O.Cl [Form FH1, (2,4-dihydroxy-5-isopropyl-phenyl)-[5-(4-methyl-piperazin-1-ylmethyl)-1,3-dihydro-isoindol-2-yl]-methanone hydrochloride salt]
hygroscopicity (Hygroscopicity): very hygroscopic and dissolves in air moisture

stability in air ([1]; listed as FH3, hydrochloride salt): stable in air
Structure (SMILES): CC(C)c1cc(C(=O)N2Cc3ccc(CN4CCN(C)CC4)cc3C2)c(O)cc1O.Cl [Form FH3, (2,4-dihydroxy-5-isopropyl-phenyl)-[5-(4-methyl-piperazin-1-ylmethyl)-1,3-dihydro-isoindol-2-yl]-methanone hydrochloride salt]
stability at 40° C. and 75% RH [1]: stable in air and at 40 °C and 75% RH for at least one month

stability in air ([1]; listed as FH4, hydrochloride salt): unstable and disintegrates in air
Structure (SMILES): CC(C)c1cc(C(=O)N2Cc3ccc(CN4CCN(C)CC4)cc3C2)c(O)cc1O.Cl [Form FH4, (2,4-dihydroxy-5-isopropyl-phenyl)-[5-(4-methyl-piperazin-1-ylmethyl)-1,3-dihydro-isoindol-2-yl]-methanone hydrochloride salt]

stability in air ([1]; listed as FH5, hydrochloride salt): unstable and dissolves in moist air
Structure (SMILES): CC(C)c1cc(C(=O)N2Cc3ccc(CN4CCN(C)CC4)cc3C2)c(O)cc1O.Cl [Form FH5, (2,4-dihydroxy-5-isopropyl-phenyl)-[5-(4-methyl-piperazin-1-ylmethyl)-1,3-dihydro-isoindol-2-yl]-methanone hydrochloride salt]

stability in air ([1]; listed as FL): stable in air
stability of the crystalline form (stable / unstable form) ([1]; listed as FL1): stable forms
Structure (SMILES): CC(C)c1cc(C(=O)N2Cc3ccc(CN4CCN(C)CC4)cc3C2)c(O)cc1O.C[C@H](O)C(=O)O [Form FL1, (2,4-dihydroxy-5-isopropyl-phenyl)-[5-(4-methyl-piperazin-1-ylmethyl)-1,3-dihydro-isoindol-2-yl]-methanone L-lactate salt]
stability at 40° C. and 75% RH [1]: stable in air and at 40 °C and 75% RH for at least one month

stability in air ([1]; listed as FL2): stable in air
stability of the crystalline form (stable / unstable form) ([1]; listed as FL2): stable forms
Structure (SMILES): CC(C)c1cc(C(=O)N2Cc3ccc(CN4CCN(C)CC4)cc3C2)c(O)cc1O.C[C@H](O)C(=O)O [Form FL2, (2,4-dihydroxy-5-isopropyl-phenyl)-[5-(4-methyl-piperazin-1-ylmethyl)-1,3-dihydro-isoindol-2-yl]-methanone L-lactate salt]

stability of the crystalline form (stable / unstable form) ([1]; listed as FL3): unstable form
Structure (SMILES): CC(C)c1cc(C(=O)N2Cc3ccc(CN4CCN(C)CC4)cc3C2)c(O)cc1O.C[C@H](O)C(=O)O [Form FL3, (2,4-dihydroxy-5-isopropyl-phenyl)-[5-(4-methyl-piperazin-1-ylmethyl)-1,3-dihydro-isoindol-2-yl]-methanone L-lactate salt]
stability in air ([1]; listed as FL3): transforms in air into form FL1; also recorded: conversion to form FL1

stability of the crystalline form (stable / unstable form) ([1]; listed as FS1, sulphate salt): unstable forms
Structure (SMILES): CC(C)c1cc(C(=O)N2Cc3ccc(CN4CCN(C)CC4)cc3C2)c(O)cc1O.O=S(=O)(O)O [Form FS1, (2,4-dihydroxy-5-isopropyl-phenyl)-[5-(4-methyl-piperazin-1-ylmethyl)-1,3-dihydro-isoindol-2-yl]-methanone sulphate salt]
stability in air ([1]; listed as FS1, sulphate salt): unstable on air and transforms to form FS3

stability at 40° C. and 75% RH ([1]; listed as FS2, sulphate salt): transforms to form FS4
stability of the crystalline form (stable / unstable form) ([1]; listed as FS2, sulphate salt): unstable forms
Structure (SMILES): CC(C)c1cc(C(=O)N2Cc3ccc(CN4CCN(C)CC4)cc3C2)c(O)cc1O.O=S(=O)(O)O [Form FS2, (2,4-dihydroxy-5-isopropyl-phenyl)-[5-(4-methyl-piperazin-1-ylmethyl)-1,3-dihydro-isoindol-2-yl]-methanone sulphate salt]
stability in air ([1]; listed as FS2, sulphate salt): unstable on air and transforms to form FS5

stability of the crystalline form (stable / unstable form) ([1]; listed as FS3, sulphate salt): stable form
Structure (SMILES): CC(C)c1cc(C(=O)N2Cc3ccc(CN4CCN(C)CC4)cc3C2)c(O)cc1O.O=S(=O)(O)O [Form FS3, (2,4-dihydroxy-5-isopropyl-phenyl)-[5-(4-methyl-piperazin-1-ylmethyl)-1,3-dihydro-isoindol-2-yl]-methanone sulphate salt]

stability of the crystalline form (stable / unstable form) ([1]; listed as FS4, sulphate salt): stable form
Structure (SMILES): CC(C)c1cc(C(=O)N2Cc3ccc(CN4CCN(C)CC4)cc3C2)c(O)cc1O.O=S(=O)(O)O [Form FS4, (2,4-dihydroxy-5-isopropyl-phenyl)-[5-(4-methyl-piperazin-1-ylmethyl)-1,3-dihydro-isoindol-2-yl]-methanone sulphate salt]
stability in a dry environment ([1]; 20° C., 11% RH): transformation of form FS4 in a dry environment

stability of the crystalline form (stable / unstable form) ([1]; listed as FS5, sulphate salt): stable forms
stability of the crystalline form (stable / unstable form) ([1]; listed as FS53, sulphate salt): stable form
Structure (SMILES): CC(C)c1cc(C(=O)N2Cc3ccc(CN4CCN(C)CC4)cc3C2)c(O)cc1O.O=S(=O)(O)O [Form FS5, (2,4-dihydroxy-5-isopropyl-phenyl)-[5-(4-methyl-piperazin-1-ylmethyl)-1,3-dihydro-isoindol-2-yl]-methanone sulphate salt]

stability at 40° C. and 75% RH ([1]; listed as FS6, sulphate salt): transforms into form FS3
stability in air ([1]; listed as FS6, sulphate salt): stable in air
stability of the crystalline form (stable / unstable form) ([1]; listed as FS6, sulphate salt): stable forms
Structure (SMILES): CC(C)c1cc(C(=O)N2Cc3ccc(CN4CCN(C)CC4)cc3C2)c(O)cc1O.O=S(=O)(O)O [Form FS6, (2,4-dihydroxy-5-isopropyl-phenyl)-[5-(4-methyl-piperazin-1-ylmethyl)-1,3-dihydro-isoindol-2-yl]-methanone sulphate salt]
